According to US20260021092A1, “STRUCTURE-BASED DESIGN OF A NOVEL CLASS OF DRUGS FOR NEURODEGENERATIVE DISEASE” (The Regents of the University of California, priority 2022, published 2026):

Columns and labels:
[1] = tested on: Neuro2a cells; test: MTT cytotoxicity assay in Neuro2a cells; format: cell-based; settings: final small molecule concentration of 10 μM
Method: 90 μL of Neuro2a cells were plated on clear 96 well plates (Falcon 353072) at 6000 cells per well and given 24 hours to adhere to the plate. Subsequent treatment consisted of PHF samples that were coincubated with or without 100 μM of small molecules for 48 hours at 37° C., with 10 μL applied per well for a final small molecule concentration of 10 μM. After another 24-hour incubation at 37° C., 20 μL of Thiazolyl Blue Tetrazolium Bromide MTT dye (Sigma; 5 mg/mL stock in DPBS) was added to each well and further incubated for 3.5 hours at 37° C. Assay was arrested by replacement of all media with 100% DMSO and transfer to a SpectraMax MF reader. Background 700 nm readings were subtracted from the absorbance readings at 570 nm. Cells treated with 100% DMSO were designated as 0% viable and those treated only with vehicle were designated as 100% viable. Other well readings were normalized to these values.

[2] = molecular target: T1, alpha-synuclein aggregates (Homo sapiens, UniProt P37840); test: Alpha-synuclein aggregation in DDP1 C. elegans; format: in vivo; settings: for soluble versus insoluble alpha-synuclein in worm homogenate by Western blot: 100 μM on plates; for number of alpha-synuclein aggregates in the head region: 100 μM on plates from L1, day 6 of adulthood
T1 construct: host or cells: transgenic C. elegans strain DDP1 (unc-54 promoter)
Text: The DDP1 C. elegans strain overexpresses alpha-synuclein fused with yellow fluorescent protein (YFP) and cyan fluorescent protein (CFP)^22,23. FRET-positive fluorescent alpha-synuclein aggregates can then be visualized and quantified in the adult worms. […] PBS was used as a vehicle control. At day 6 of adulthood, the worms were visualized, and the number of aggregates were quantified by fluorescent microscopy. […] Treated worms were also homogenized for protein analysis by Western blot. Homogenate for each experimental condition was separated into insoluble pellet fractions (P) and soluble supernatant (S) fractions. For untreated worm homogenate, the majority of alpha-synuclein is found in the insoluble pellet.
For C. elegans experiments, the same protocol was used, except following the treatment period worms were harvested, flash frozen, then homogenized for protein extraction. The membrane was washed with TBST overnight before repeating the Western blot analysis for beta-actin (primary antibody anti-beta-actin (C4) (Santa Cruz Biotechnology, cat #sc-47778, lot #J1119; 1:500 dilution in 5% milk/TBST); horseradish peroxidase-conjugated secondary antibody (goat polyclonal anti-mouse IgG (Abcam; cat #ab205719, lot #GR3271082-2); 1:5000 dilution in 5% milk/TBST).
The DDP1 (uonExl [unc-54::αSyn::CFP+unc-54::αSyn::YFP(Venus)]) strain was acquired from the Caenorhabditis Genetics Center (CGC) and used for experiments. C. elegans were grown and maintained using standard conditions. Worms were synchronized using hypochlorite bleaching, hatched ovemight in M9 media (5 g/l NaCl, 6 g/l Na2HPO4, 3 g/l KH2PO4, […]) at 17° C., then cultured on plates with nematode growth medium (NGI; 17 g/l agar, 2.5 g/l peptone, 3 g/l NaCl 1 mM CaCl2, 1 mM MgSO4, 25 mM KH2PO4 pH 6, 5 μg/ml cholesterol) seeded with OP50 E. coli. Strains were maintained at 17° C. […] Treatment plates were then seeded with heat treated OP50 (30 min at 65° C.), according to the “NGM dead” method as previously published^36. Synchronized L1 worms were then added to the treatment plates and grown for 7 days. PBS was used as a control condition. 75 μM FUDR was added on the third day of growth. For imaging, worms were mounted onto 5% agar pads on glass slides, immobilized with 1% NaN3 solution, and imaged by fluorescent microscopy (GFP channel) using a ZEISS Axio Observer D1 fluorescence microscope. Alpha-synuclein aggregates in the head region were quantified.

[3] = Brain penetration in mice (LC-MS/MRM of plasma and brain); format: in vivo, C57BL/6J mice; settings: 0.5 mg/kg tail vein injection, 1 hour after dosing, range of n=3; for concentration at 1 h: C57BL/6J, mouse, plasma, intravenous
Method: The compounds were administered by tail vein injection at a dose of 0.5 mg/kg of body weight to C57BL/6J mice (n=3 for each compound). […] To detect and quantify the drugs we used a sensitive, selective, and specific liquid chromatographic/tandem mass spectrometric multiple reaction monitoring (LC-MS/MRM) assay. The sample extraction protocol for plasma and brain was optimized with spiking experiments in which the authentic compounds were added to plasma and brain from drug-naive mice. […] Blood was collected by cardiac puncture and plasma was recovered as the supernatant after centrifugation (3000×g, 10 m) and stored frozen. Brains were collected by standard dissection and immediately frozen. To measure the average drug concentrations across the entire brains each left hemisphere (average wet weight 250 mg) was processed. The samples were spiked with the internal standard (IS, CNS-11F, 15 pmol in 15 μL of acetonitrile) and homogenized with a probe sonicator (Kontes microsonic cell disrupter, 30 sec) after the addition of acetonitrile/water (4:1, v/v, 2500 μL). The homogenates were divided evenly into three polypropylene microcentrifuge tubes (met) for triplicate measurements of each sample. Following centrifugation (16,100g, 5 min), the supernatants were transferred to clean mets and dried in a vacuum centrifuge. The pellets were treated with acetonitrile (25 μL) with vigorous mixing, followed by water (25 μL) with more vigorous mixing, followed by more water (50 μL) for a total volume of 100 μL. The samples were mixed again, centrifuged (16,100g, 5 min) and the supernatants were transferred to HPLC injector vials. […] These samples were processed as described above. Plasma samples (50 μL, in duplicate for each mouse) were spiked with the internal standard (IS, CNS-11F, 5 pmol in 5 μL of acetonitrile), and vigorously mixed after the addition of acetonitrile (500 μL). Following centrifugation (16,100g, 5 min), the supernatants were transferred to clean mcts and dried in a vacuum centrifuge. […] The effluent from the column was directed to an electrospray ion source (Agilent Jet Stream) connected to a triple quadrupole mass spectrometer (Agilent 6460) operating in the positive ion tandem mass spectrometric multiple reaction monitoring (MRM) mode in which the intensity of the transition of preselected parent ions to preselected fragment ions was recorded after signal optimization (collision energy, fragmentor voltage and collision cell accelerator voltage) with instrument manufacturer-supplied software (Mass Hunter). […] Peak areas were integrated and recorded, and a curve was constructed from the data obtained from the standards in which the ratio of drug peak area/IS peak area was plotted against the amount of drug in each sample. […]

SMILES | neuronal cytotoxicity of compound alone [1] | soluble versus insoluble alpha-synuclein in worm homogenate by Western blot [2] | number of alpha-synuclein aggregates in the head region [2] | concentration in brain tissue [3] | concentration at 1 h [3]
Cc1cc(C)c(NC(=O)Cn2nc3c4c(cccc4c2=O)-c2ccccc2-3)c(C)c1 [CNS-11, N-mesityl-2-(3-oxoindeno[1,2,3-de]phthalazin-2(3H)-yl)acetamide] | Apart from CNS-11 | solubilization of the alpha-synuclein | reduction of total aggregates | 6.9-21.5 ng/g of brain | 5 to 28.4 nM
Cc1cccc(C)c1NC(=O)Cn1nc(Cc2ccccc2)c2ccccc2c1=O [CNS-11g, 2-(4-benzyl-1-oxophthalazin-2-yl)-N-(2,6-dimethylphenyl)acetamide] |  | solubilization of the alpha-synuclein | reduction of total aggregates | 4.2-26.1 ng/g of brain | 10.4 to 58.8 nM
O=C(O[C@@H]1Cc2c(O)cc(O)cc2O[C@@H]1c1cc(O)c(O)c(O)c1)c1cc(O)c(O)c(O)c1 [EGCG, epigallocatechin gallate] | no significant cytotoxicity |  |  |  | 
